Assay: Solubility in water and precipitation behaviour
Format: physicochemical
Procedure: 4-Amino-4-deoxy-N^10 -methylpteroic acid dihydrate (720 mg, 2.0 mmoles) is added in small portions to a stirred solution of diethylphosphorocyanidate (915 mg, 5 mmoles) and triethylamine (500 mg, 5 mmoles) in N,N-dimethylformamide (DMF) (75 ml) previously dried over Linde 4A molecular sieves. The solution is stirred at room temperature overnight, and an extra 25% of diethyl phosphorocyanidate and Et3 N is added. TLC (silica gel, 4:1 chloroform-methanol) indicates the formation of the activated intermediate to be complete. The silylated D,L-homocysteic acid triethylammonium salt (1.8 g, 4 mmoles) is then added, and the reaction mixture is stirred at room temperature for 44 hours. After addition of a few milliliters of water, the solvent is removed with the aid of a rotary evaporator and the residue is dissolved in 3 percent ammonium bicarbonate, with a few drops of concentrated ammonia being added as needed. […] The solution is taken up in a minimum of H2 O with just enough Nh4 OH added to dissolve all the solid, and the solution is applied to a DEAE-cellulose column that has been pre-equilibrated with 3 percent ammonium bicarbonate and then washed to neutrality with H2 O. The column is eluted with a large volume of H2 O, and then again with 3% NH4 HCO3. […] Individual 5-10 ml volumes of the NH4 HCO3 eluate are monitored by TLC. […]

solubility in water: very soluble in water
Compound: CN(Cc1cnc2nc(N)nc(N)c2n1)c1ccc(C(=O)NC(CCS(=O)(=O)O)C(=O)O)cc1 (racemic) [mAPA-D,L-HCysA, N-(4-Amino-4-deoxy-N^10-methylpteroyl)-D,L-homocysteic acid]
precipitation from basic solution (adjustment of the pH to 6, in contrast to methotrexate): cannot be precipitated from basic solution on adjustment of the pH to 6

Reference: patent US4490529A, “Cysteic acid and homocysteic acid analogues of methotrexate and aminopterin” (Dana-Farber Cancer Institute, Inc., priority 1983, dated 1984)
